Holding throughout (experiment): Antibacterial activity, microbroth dilution method (MIC)
Test [1] relates to super sensitive Gram-negative Escherichia coli (E. coli) BAS849. Format: cell-based. To be noted: Escherichia coli, read-out: MIC, E. coli BAS849. The method, boiled down: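 Broth microdilution; endpoint = no macroscopic growth; value = lowest inhibiting concn, μg/mL.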
The test system of test [2] is Gram-positive Staphylococcus aureus (S. aureus) 29213. Format: cell-based. To be noted: Staphylococcus aureus, Gram-positive S. aureus 29213. The method, boiled down: (§1)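 Read-out: visual absence of growth. The lowest concentration meeting this gives the MIC, expressed in μg/mL, with microbroth dilution as the method.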
Test [3] deals with control Gram-negative E. coli 25922 strain. Format: cell-based, Escherichia coli. To be noted: Escherichia coli. The method, boiled down: as §1
Setting [4] is: super sensitive Gram-negative E. coli BAS849, microbroth dilution.

≈ marks a conversion by molar mass, not a printed value. Structures can show the parent of a compound that is named as a salt. Where two headings read alike, the source gives them in different places. Some results are limits rather than exact numbers.

As to `Cl.Cn1c(CN2CCC2)cc2cc3c(cc21)OCCc1c-3[nH]c(=O)c(C(=O)O)c1O` [Cpd 91, 10-(azetidin-1-ylmethyl)-4-hydroxy-9-methyl-2-oxo-2,5,6,9-tetrahydro-1H-pyrido[2′,3′:4,5]oxepino[3,2-f]indole-3-carboxylic acid hydrochloride], the MIC in test [1] (setting [4]) is less than 1 µg/mL; in test [2], 12.5 to 150 µg/mL; in test [3], less than 1 µg/mL.

Turning to `CCNCc1cc2cc3c(cc2n1C)OCC(C)c1c-3[nH]c(=O)c(C(=O)O)c1O.Cl` (stereo not drawn) [Cpd 92, 10-((ethylamino)methyl)-4-hydroxy-5,9-dimethyl-2-oxo-2,5,6,9-tetrahydro-1H-pyrido[2′,3′:4,5]oxepino[3,2-f]indole-3-carboxylic acid hydrochloride], the minimum inhibitory concentration (MIC) in test [1] (setting [4]) lay in the range of 1 to 3.5 µg/mL; in test [2] it was 12.5 to 150 µg/mL; in test [3], 3.5 to 12.5 µg/mL.

Turning to `CN1CCc2c([nH]c(=O)c(C(=O)O)c2O)-c2ccc(N3CCCC3)cc21` [Cpd 93, 4-hydroxy-7-methyl-2-oxo-9-(pyrrolidin-1-yl)-2,5,6,7-tetrahydro-1H-benzo[b]pyrido[2,3-d]azepine-3-carboxylic acid], the minimal inhibitory concentration (MIC) in test [1] (setting [4]) is 3.5 to 12.5 µg/mL (≈ 9.85 to 35.2 µM); in test [2], 12.5 to 150 µg/mL (≈ 35.2 to 422 µM); in test [3], 12.5 to 150 µg/mL (≈ 35.2 to 422 µM).

In the case of `O=C(O)c1c(O)c2c([nH]c1=O)-c1ccc(N3CCCC3)cc1NCC2` [Cpd 94, 4-hydroxy-2-oxo-9-(pyrrolidin-1-yl)-2,5,6,7-tetrahydro-1H-benzo[b]pyrido[2,3-d]azepine-3-carboxylic acid], the MIC in test [1] (setting [4]) is less than 1 µg/mL; in test [2] it was 12.5 to 150 µg/mL (≈ 36.6 to 439 µM); in test [3], 1 to 3.5 µg/mL (≈ 2.93 to 10.3 µM).

Turning to `CN(C)C1CCN(c2ccc3c(c2)NCCc2c-3[nH]c(=O)c(C(=O)O)c2O)C1.Cl` (stereo not drawn) [Cpd 95, 9-(3-(dimethylamino)pyrrolidin-1-yl)-4-hydroxy-2-oxo-2,5,6,7-tetrahydro-1H-benzo[b]pyrido[2,3-d]azepine-3-carboxylic acid hydrochloride], the MIC in test [1] (setting [4]) fell in the range of 3.5 to 12.5 µg/mL; in test [2], 12.5 to 150 µg/mL; in test [3] it was 3.5 to 12.5 µg/mL.

`CN1CCN(c2ccc3c(c2)NCCc2c-3[nH]c(=O)c(C(=O)O)c2O)CC1.Cl` [Cpd 96, 4-hydroxy-9-(4-methylpiperazin-1-yl)-2-oxo-2,5,6,7-tetrahydro-1H-benzo[b]pyrido[2,3-d]azepine-3-carboxylic acid hydrochloride]: the minimum inhibitory concentration (MIC) in test [1] (setting [4]) is 3.5 to 12.5 µg/mL; in test [2], 12.5 to 150 µg/mL; in test [3] it was 12.5 to 150 µg/mL.

For `N[C@@H]1[C@H]2CN(c3ccc4c(c3)NCCc3c-4[nH]c(=O)c(C(=O)O)c3O)C[C@@H]12` [Cpd 97, 9-((cis,cis)-6-amino-3-azabicyclo[3.1.0]hexan-3-yl)-4-hydroxy-2-oxo-2,5,6,7-tetrahydro-1H-benzo[b]pyrido[2,3-d]azepine-3-carboxylic acid hydrochloride], the minimum inhibitory concentration (MIC) in test [1] (setting [4]) was 1 to 3.5 µg/mL; in test [2], 12.5 to 150 µg/mL; in test [3], 3.5 to 12.5 µg/mL.

Consider `Cl.O=C(O)c1c(O)c2c([nH]c1=O)-c1ccc(N3CC4CCCNC4C3)cc1NCC2` (stereo not drawn) [Cpd 98, 9-(hexahydro-1H-pyrrolo[3,4-b]pyridin-6(2H)-yl)-4-hydroxy-2-oxo-2,5,6,7-tetrahydro-1H-benzo[b]pyrido[2,3-d]azepine-3-carboxylic acid hydrochloride], for which the minimal inhibitory concentration (MIC) in test [1] (setting [4]), in test [2] and in test [3] was 12.5 to 150 µg/mL each time.

As to `CNCc1cc2cc3c(cc2n1C)NCCc1c-3[nH]c(=O)c(C(=O)O)c1O.Cl` [Cpd 99, 4-hydroxy-9-methyl-10-((methylamino)methyl)-2-oxo-1,2,5,6,7,9-hexahydropyrido[2′,3′:4,5]azepino[3,2-f]indole-3-carboxylic acid hydrochloride], the minimum inhibitory concentration (MIC) in test [1] (setting [4]) was in the range of 1 to 3.5 µg/mL; in test [2], 12.5 to 150 µg/mL; in test [3], 12.5 to 150 µg/mL.

`CCNCc1cc2cc3c(cc2n1C)NCCc1c-3[nH]c(=O)c(C(=O)O)c1O.Cl` [Cpd 100, 10-((ethylamino)methyl)-4-hydroxy-9-methyl-2-oxo-1,2,5,6,7,9-hexahydropyrido[2′,3′:4,5]azepino[3,2-f]indole-3-carboxylic acid hydrochloride]: the results for the minimum inhibitory concentration (MIC) in test [1] (setting [4]), in test [2] and in test [3] were 1 to 3.5 µg/mL, 12.5 to 150 µg/mL and 12.5 to 150 µg/mL, respectively.

With `CC(C)NCc1cc2cc3c(cc2n1C)NCCc1c-3[nH]c(=O)c(C(=O)O)c1O.Cl` [Cpd 101, 4-hydroxy-10-((isopropylamino)methyl)-9-methyl-2-oxo-1,2,5,6,7,9-hexahydropyrido[2′,3′:4,5]azepino[3,2-f]indole-3-carboxylic acid hydrochloride], the figures for the MIC in test [1] (setting [4]), in test [2] and in test [3] were 1 to 3.5 µg/mL, 12.5 to 150 µg/mL and 3.5 to 12.5 µg/mL, respectively.

Turning to `Cl.Cn1c(CNC(C)(C)C)cc2cc3c(cc21)NCCc1c-3[nH]c(=O)c(C(=O)O)c1O` [Cpd 102, 10-((tert-butylamino)methyl)-4-hydroxy-9-methyl-2-oxo-1,2,5,6,7,9-hexahydropyrido[2′,3′:4,5]azepino[3,2-f]indole-3-carboxylic acid hydrochloride], the minimal inhibitory concentration (MIC) in test [1] (setting [4]) lay within 1 to 3.5 µg/mL; in test [2], 12.5 to 150 µg/mL; in test [3] it was 3.5 to 12.5 µg/mL.

As to `CNCc1cc2cc3c(cc2n1C)NCCCc1c-3[nH]c(=O)c(C(=O)O)c1O.Cl` [Cpd 103, 4-hydroxy-10-methyl-11-((methylamino)methyl)-2-oxo-2,5,6,7,8,10-hexahydro-1H-pyrido[2′,3′:4,5]azocino[3,2-f]indole-3-carboxylic acid hydrochloride], the MIC in test [1] (setting [4]) lay within 1 to 3.5 µg/mL; in test [2] it was 12.5 to 150 µg/mL; in test [3], 12.5 to 150 µg/mL.

As for `CCNCc1cc2cc3c(cc2n1C)NCCCc1c-3[nH]c(=O)c(C(=O)O)c1O.Cl` [Cpd 104, 11-((ethylamino)methyl)-4-hydroxy-10-methyl-2-oxo-2,5,6,7,8,10-hexahydro-1H-pyrido[2′,3′:4,5]azocino[3,2-f]indole-3-carboxylic acid hydrochloride], the MIC in test [1] (setting [4]) lay in the range of 1 to 3.5 µg/mL; in test [2], 12.5 to 150 µg/mL; in test [3] it was 3.5 to 12.5 µg/mL.

On to `CC(C)NCc1cc2cc3c(cc2n1C)NCCCc1c-3[nH]c(=O)c(C(=O)O)c1O.Cl` [Cpd 105, 4-hydroxy-11-((isopropylamino)methyl)-10-methyl-2-oxo-2,5,6,7,8,10-hexahydro-1H-pyrido[2′,3′:4,5]azocino[3,2-f]indole-3-carboxylic acid hydrochloride], for which the MIC in test [1] (setting [4]) was in the range of 1 to 3.5 µg/mL; in test [2] it was 12.5 to 150 µg/mL; in test [3], 3.5 to 12.5 µg/mL.

Regarding `CC1Cc2cc3c(cc2-c2[nH]c(=O)c(C(=O)O)c(O)c21)OCO3` (stereo not drawn) [Cpd 106, 4-hydroxy-5-methyl-2-oxo-1,2,5,6-tetrahydro-[1,3]dioxolo[4′,5′:4,5]benzo[1,2-h]quinoline-3-carboxylic acid], the minimum inhibitory concentration (MIC) in test [1] (setting [4]) lay in the range of 1 to 3.5 µg/mL (≈ 3.17 to 11.1 µM); in test [2], 12.5 to 150 µg/mL (≈ 39.6 to 476 µM); in test [3], 12.5 to 150 µg/mL (≈ 39.6 to 476 µM).

With `CC1Cc2cc(N3CCCC3)ccc2-c2[nH]c(=O)c(C(=O)O)c(O)c21` (stereo not drawn) [Cpd 107, 4-hydroxy-5-methyl-2-oxo-8-(pyrrolidin-1-yl)-1,2,5,6-tetrahydrobenzo[h]quinoline-3-carboxylic acid], the MIC in test [1] (setting [4]) was less than 1 µg/mL; in test [2], 3.5 to 12.5 µg/mL (≈ 10.3 to 36.7 µM); in test [3] it was 12.5 to 150 µg/mL (≈ 36.7 to 441 µM).

As to `CC1Cc2cc(N(C)C)ccc2-c2[nH]c(=O)c(C(=O)O)c(O)c21` (stereo not drawn) [Cpd 108, 8-(dimethylamino)-4-hydroxy-5-methyl-2-oxo-1,2,5,6-tetrahydrobenzo[h]quinoline-3-carboxylic acid], the MIC in test [1] (setting [4]) is less than 1 µg/mL; in test [2], 3.5 to 12.5 µg/mL (≈ 11.1 to 39.8 µM); in test [3], 12.5 to 150 µg/mL (≈ 39.8 to 477 µM).

`CC1Cc2cc(N3CCC(N(C)C)C3)ccc2-c2[nH]c(=O)c(C(=O)O)c(O)c21.Cl` (stereo not drawn) [Cpd 109, 8-(3-(dimethylamino)pyrrolidin-1-yl)-4-hydroxy-5-methyl-2-oxo-1,2,5,6-tetrahydrobenzo[h]quinoline-3-carboxylic acid hydrochloride]: the values for the minimum inhibitory concentration (MIC) in test [1] (setting [4]), in test [2] and in test [3] were 3.5 to 12.5 µg/mL, 12.5 to 150 µg/mL and 12.5 to 150 µg/mL, respectively.

Regarding `CC1Cc2cc(N3C[C@@H]4[C@@H](N)[C@@H]4C3)ccc2-c2[nH]c(=O)c(C(=O)O)c(O)c21` (stereo partly drawn) [Cpd 110, 8-((cis,cis)-6-amino-3-azabicyclo[3.1.0]hexan-3-yl)-4-hydroxy-5-methyl-2-oxo-1,2,5,6-tetrahydrobenzo[h]quinoline-3-carboxylic acid trifluoroacetate], the MIC in test [1] was 3.5 to 12.5 µg/mL; in test [2] it was 12.5 to 150 µg/mL; in test [3], 12.5 to 150 µg/mL.

`Cl.O=C(O)c1c(O)c2c([nH]c1=O)-c1ccc(N3CCCNCC3)cc1CCC2` [Cpd 111, 9-(1,4-diazepan-1-yl)-4-hydroxy-2-oxo-2,5,6,7-tetrahydro-1H-benzo[6,7]cyclohepta[1,2-b]pyridine-3-carboxylic acid hydrochloride]: the MIC lay in the range of 1 to 3.5 µg/mL in test [1] (setting [4]), 12.5 to 150 µg/mL in test [2] and 12.5 to 150 µg/mL in test [3].

As for `CN1CCCN(c2ccc3c(c2)CCCc2c-3[nH]c(=O)c(C(=O)O)c2O)CC1.Cl` [Cpd 112, 4-hydroxy-9-(4-methyl-1,4-diazepan-1-yl)-2-oxo-2,5,6,7-tetrahydro-1H-benzo[6,7]cyclohepta[1,2-b]pyridine-3-carboxylic acid hydrochloride], the MIC was in the range of 1 to 3.5 µg/mL in test [1] (setting [4]), 12.5 to 150 µg/mL in test [2] and 3.5 to 12.5 µg/mL in test [3].

`CN(C)CCNc1ccc2c(c1)CCCc1c-2[nH]c(=O)c(C(=O)O)c1O.Cl` [Cpd 113, 9-((2-(dimethylamino)ethyl)amino)-4-hydroxy-2-oxo-2,5,6,7-tetrahydro-1H-benzo[6,7]cyclohepta[1,2-b]pyridine-3-carboxylic acid hydrochloride]: the MIC in test [1] (setting [4]) lay within 3.5 to 12.5 µg/mL; in test [2], 12.5 to 150 µg/mL; in test [3], 12.5 to 150 µg/mL.

The values are drawn from patent US20150038438A1, “ANTIBACTERIAL COMPOUNDS AND METHODS FOR USE” (PTC THERAPEUTICS, INC., priority 2011, published 2015).
